PMC8585690 (Toxicology, 2021)
Where “and” joins values, the source holds several entries; their conditions need not be identical. Equal entries are not always repeated. Where two headings read alike, the source gives them in different places. One block for each molecule: values may come before it.

What was measured:
[1] = system: plasma protein; conditions: cited from earlier work; for plasma free fraction, previously reported measurement: ref Sakolish et al. 2021; for Fub, plasma: representative range of literature-reported values, ref see Methods
[2] = system: Hepatocyte; conditions: metabolizing enzymes and conjugation pathways; cited from earlier work
[3] = Literature-based in vivo clinical clearance, AUC and bioavailability; conditions: for mean oral clearance of available literature values: mean across studies, no further adjustment; for bioavailability: in vivo
[4] = cited from earlier work; for estimated clearance: ref Kadam et al. 2013
[5] = system: primary human hepatocytes or human iPSC-derived hepatocytes; conditions: for underprediction of clearance by LAMPS compared to in vivo: Day 1 (24 hr) clearance vs in vivo intrinsic clearance
[6] = system: primary human hepatocytes or human iPSC-derived hepatocytes; experiment: Hepatic clearance in monolayer culture; assay type: in vitro ADME; conditions: 2D culture; in most cases primary cells exhibited greater clearance
[7] = system: primary human hepatocytes or human iPSC-derived hepatocytes; conditions: as previously reported; ref Sakolish et al. 2021; cited from earlier work
[8] = Plasma protein binding / plasma free fraction; assay type: in vitro ADME; conditions: human
[9] = system: microphysiological system; conditions: ref Marin et al. (2019); cited from earlier work

SMILES: Cn1c(=O)c2c(ncn2C)n(C)c1=O [Caffeine]
plasma free fraction ([1]; equilibrium dialysis, ref Lelo et al. 1986): 0.68 | plasma free fraction, previously reported measurement [1]: 0.515 | Plasma protein binding, % free ([1]; summary of Table 1 values): > 50 % free | Hepatocyte metabolism [2]: CYPA2, xanthine oxidase, or N-acetyltransferase 2 | oral clearance converted using 70 kg body weight ([3]; human, from ref Lelo et al. 1986): 8.7 L/h | oral clearance ([4]; human, ref Lelo et al. 1986): 2.07 mL/min/kg | in vitro intrinsic clearance as a function of time ([5]; 10-day experimental period, all four model systems (2D and 3D, primary and iPSC-derived hepatocytes)): decline in clearance was also observed | underprediction of clearance by LAMPS compared to in vivo [5]: < 5 fold

mean oral clearance of available literature values ([3]; human, oral): 3.02 L/h | mean oral clearance adjusted for absorption ([3]; human, oral, mean of all available values, adjusted for incomplete absorption): 2.51 L/h | oral clearance converted using 70 kg body weight ([3]; human, from ref Eckland and Danhof 2000): 2.66 L/h and 3.7 L/h and 3.35 L/h | underprediction of clearance by LAMPS compared to in vivo [5]: < 5 fold
SMILES: CCc1ccc(CCOc2ccc(CC3SC(=O)NC3=O)cc2)nc1 (stereo not shown) [Pioglitazone]
plasma free fraction ([1]; ref Eckland and Danhof 2000): < 0.03 | plasma free fraction, previously reported measurement [1]: 0.0441 | Fub, plasma [1]: 0.008-0.04 | Hepatocyte metabolism [2]: CYP2C8, CYP3A4, and conjugation with sulfate or glucuronic acid | estimated clearance ([4]; "wild type" individuals): 2.12 L/h | estimated clearance ([4]; CYP2C8*3 carrier): 3.21 L/h | oral clearance ([4]; human, ref Eckland and Danhof 2000): 0.633 mL/min/kg and 0.882 mL/min/kg and 0.797 mL/min/kg | absorption ([4]; ref Eckland and Danhof 2000): 83% | daily AUC ([4]; repeat dose, ref Budde et al. 2003): 14,565 ug-hr/l | AUC ([4]; single dose of 45 mg, ref Budde et al. 2003): 17,387 ug-hr/l

bioavailability ([3]; human, oral, 8 mg): 98% | mean oral clearance of available literature values ([3]; human, oral): 2.85 L/h
SMILES: CN(CCOc1ccc(CC2SC(=O)NC2=O)cc1)c1ccccn1 (stereo not shown) [Rosiglitazone]
free fraction ([1]; by ultrafiltration, ref Chapelsky et al. 2003): 0.0016 | plasma free fraction, previously reported measurement [1]: 0.0038 | Fub, plasma [1]: 0.0016-0.036 | Hepatocyte metabolism [2]: CYP2C8, CYP2C9, N-demethylation, and conjugation with sulfate or glucuronic acid | oral clearance ([4]; human, ref Chapelsky et al. 2003): 3.07 L/h | AUC ([4]; i.v. dose of 2 mg, ref Cox et al. 2000): 744 ng·h/mL | AUC ([4]; oral dose of 8 mg, ref Cox et al. 2000): 2,900 ng-hr/ml and 2,930 ng-hr/ml | parent compound in feces ([4]; radioactivity detected in feces, ref Cox et al. 2000): no parent compound was detected

SMILES: CC(C)(C)c1ccc(C(O)CCCN2CCC(C(O)(c3ccccc3)c3ccccc3)CC2)cc1 (stereo not shown) [Terfenadine]
free fraction ([1]; by ultrafiltration, ref Awni et al. 1997): 0.003 | plasma free fraction, previously reported measurement [1]: 0.0219 | Fub, plasma [1]: 0.003-0.022 | free fraction ([1]; source cited was a review, ref McTavish et al. 1990): 0.03 | AUC ([4]; 60 mg dose, ref Bergstrom et al. 1997): 24.6 ng·h/mL | AUC ([4]; 120 mg dose, ref Stern et al. 1998): 20.14 ng·h/mL

CL/F adjusted for oral absorption ([3]; 11.43*0.68, from ref Jorga et al. 1998): 7.8 L/h | bioavailability ([3]; human, oral): 62% | clearance in primary cells versus iPSC-derived hepatocytes [6]: the opposite was true
SMILES: Cc1ccc(C(=O)c2cc(O)c(O)c([N+](=O)[O-])c2)cc1 [Tolcapone]
unbound fraction ([1]; no source cited, ref Jorga et al. 1998): < 0.001 | bound ([1]; ref Jorga et al. 1998): > 99.9% | plasma free fraction, previously reported measurement [1]: 0.002 | Fub, plasma [1]: <0.001-0.029 | Hepatocyte metabolism [2]: Conjugation with glucuronic acid | i.v. clearance ([4]; ref Jorga et al. 1998): 7.1 L/h | oral clearance ([4]; ref Jorga et al. 1998): 11.43 L/h | toxicity indicated by lactate dehydrogenase (LDH) and TNF-alpha release [7]: most toxic

fraction unbound [8]: 0.017 | oral clearance converted to ([3]; from ref Loi et al. 1997): 33.5 L/h | oral clearance converted to ([3]; from ref Loi et al. 1999): 29.8 L/h and 30 L/h and 36 L/h | mean oral clearance of available literature values ([3]; human, oral): 36.8 L/h
SMILES: Cc1c(C)c2c(c(C)c1O)CCC(C)(COc1ccc(CC3SC(=O)NC3=O)cc1)O2 (stereo not shown) [Troglitazone]
mean unbound fraction ([1]; by ultrafiltration, non-detects (one-third of subjects) not included, ref Ott et al. 1998): 0.026 | plasma free fraction, previously reported measurement [1]: 0.008 | Fub, plasma [1]: 0.0009-0.017 | Hepatocyte metabolism [2]: CYP3A4, and conjugation with sulfate or glucuronic acid | AUC ([4]; oral dose of 400 mg, ref Ott et al. 1998): 7300 ng·h/mL | oral clearance ([4]; ref Loi et al. 1997): 33.5 L/h | oral clearance ([4]; three values, ref Loi et al. 1999): 30 L/h and 36.1 L/h and 29.8 L/h

bioavailability ([3]; human, oral, 200 mg equivalent): > 100%
SMILES: N[C@@H]1[C@H]2CN(c3nc4c(cc3F)c(=O)c(C(=O)O)cn4-c3ccc(F)cc3F)C[C@@H]12 [Trovafloxacin]
free fraction in serum ([1]; by equilibrium dialysis, ref Teng et al. 1995, Teng et al. 1996): 0.3 and 0.238 | Hepatocyte metabolism [2]: N-Acetylation, and conjugation with glucuronic acid | AUC ([4]; iv, 200 mg equivalent, ref Vincent et al. 1998): 22000 ng·h/mL | AUC ([4]; oral, 200 mg equivalent, ref Vincent et al. 1998): 32200 ng·h/mL | toxicity indicated by lactate dehydrogenase (LDH) and TNF-alpha release [7]: most toxic

SMILES: CC(=O)Nc1ccc(O)cc1 [acetaminophen]
half-life in the microphysiological system as compared to in vivo [9]: 6 fold
